Test results taken from patent US12098162B2, “Neutral glycosylated amides and dianionic glucuronidated acids as stabilizers for biological molecules” (Extremochem, LDA, priority 2017, dated 2024).

Columns and labels:
Format in all cases: physicochemical
lysozyme = lysozyme (Gallus gallus, UniProt P00698); assay: Stabilization of lysozyme measured by DSF (melting temperature); conditions: 0.25 M stabiliser, FIG. 1; for stabilization effect on lysozyme (increase of melting temperature Tm): 25 mM sodium acetate buffer pH 3.6 and phosphate buffer pH 12, Tm without compounds 71 °C (pH 3.6) and 55 °C (pH 12); for stabilization effect on lysozyme at pH 12 compared with pH 3.6: DSF
Description: (§1) Differential Scanning Fluorimetry (DSF) Assay
(§2) The protein melting temperature (Tm) determination was performed by monitoring protein unfolding with the fluoroprobe SYPRO Orange dye (Molecular Probes), which although completely quenched in aqueous environment, emits fluorescence upon binding to protein hydrophobic patches. Such increase in fluorescence can be measured as a function of temperature. The thermal shift assay was performed on an iCycle iQ5 Real Time PCR Detection System (Bio-Rad), equipped with a charge-coupled device (CCD) camera and a Cy3 filter with excitation and emission wavelengths of 490 and 575 nm, respectively. This equipment can simultaneously detect the fluorescence changes in 96-well plates (low profile plate, Bio-Rad) and thus can be used for parallel thermal stability assays. The 96-well plates are sealed with optical quality sealing tape (Bio-Rad) and centrifuged at 2500 g for 1 minutes immediately before the assay to remove possible air bubbles. The plates are subsequently heated from 20 to 90° C. with stepwise increments of 1° C. with 60 seconds equilibration time, followed by the fluorescence read out. Fluorescence intensities versus temperature are used to calculate the protein melting temperature (Tm) by determining the first derivative (d(Rfu)/dT) and extract the exact transition inflection point. Delta TM values (DTM) for the various conditions were calculated by subtracting the TM value obtained for the reference from the TM value obtained for each condition.
(§3) In a typical assay with a total volume of 20 μL, a protein concentration from 0.1-0.5 mg/mL and a dye concentration of 5 fold were used to guarantee the best signal to noise ratio. The protein stock solutions were prepared in their corresponding buffers before performing the DSF experiments. Stabiliser solutions and dyes were prepared according to each assay specific conditions. The assay was prepared by adding 1-2 μL of protein to 8-9 μL of dye buffer solution, and 10 μL of compound solution. Controls were prepared by replacing the volume of stabilisers by the correspondent buffer.
The stabilization of lysozyme in the presence of several stabilisers at 0.25 M concentration and at pH 3.6 and pH 12 was studied using DSF (FIG. 1). […] The stabilization effect was higher for GBA, GaGlyA, b-GGlyA, b-GaLA, b-GaGlyA, and b-GaBA at the higher pH (pH 12). All new compounds are able to stabilise lysozyme under both stress conditions.

ubiquitin = target: T1, ubiquitin (Homo sapiens, UniProt P0CG47); assay: Stabilization assay of ubiquitin measured by DSF; conditions: 0.25 M compound; phosphate buffer pH 12; Tm without compounds 72 °C; FIG. 4
T1 construct: Stabilization Assay of Ubiquitin Measured by DSF
Description: as §1
as §2, with “The 96-well plates are sealed with optical quality sealing tape (Bio-Rad) and centrifuged at 2500 g for 1 minutes immediately before the assay to remove possible air bubbles.” left out, “condition. […]” for “condition.”

Factor IX = Factor IX (Homo sapiens, UniProt P00740); assay: Stabilization assay of Factor IX measured by DSF; conditions: 0.25 M stabiliser in water, pH 7-8; Tm without compounds 50 °C; FIG. 5
Description: as §1, §2, §3
Stabilization of Factor IX using neutral amide-containing glycosides of the present invention were measured using DSF. The new stabilizers increased the melting temperature of factor IX at a 0.25 M concentration in water and at pH 7-8, as shown in FIG. 5.

adalimumab (Humira®) [1] = assay: Stabilization assay of adalimumab (Humira) measured by HPSEC under low pH stress; conditions: GaGlyA 0.5 M; Humira 0.4 mg/ml; room temperature, no thermal stress; compared with no stabiliser; FIG. 2
Description: High Performance Size Exclusion Chromatography (HPSEC) Assay
HP-SEC was performed with Waters 515 pump, a Waters 2487 Dual Absorbance Detector (Waters, USA) and a Rheodyme 77251 injector (Waters, USA). A TSK Gel G3000 SWXL column (300 mm×7.8 mm) (Tosoh Biosep, Germany) was used. The volume of injection was adjusted according to each sample concentration in order to inject […] sample of biological molecule, and separation was performed at a flow rate of 1.0 mL/min or adjusted as appropriate. A suitable running buffer was used, e.g., 100 mM sodium sulfate, 100 mM sodium phosphate dibasic pH 6.8 for Humira® samples. UV detection was performed at a wavelength suitable to detect the biological molecule, e.g., 280 nm. No thermal stress was applied and assay was performed at room temperature. Absorbance was measured to determine the concentration of biological molecule and thus determine amount of degredation of the biological molecule.
A pH titration of adalimumab (Humira®) to pH 3.2 was performed either in the absence and presence of stabiliser GaGlyA 0.5 M, and the results were analysed by HPSEC (FIG. 2). […] Absorbance was measured to determine the concentration of biological molecule and thus determine amount of degredation of the biological molecule. […]

adalimumab (Humira®) [2] = assay: Stabilization assay of adalimumab measured by DSF; conditions: 0.25 M stabiliser; phosphate buffer pH 12; Tm without compounds 41 °C; FIG. 3
Description: as §1
as §2, with “The 96-well plates are sealed with optical quality sealing tape (Bio-Rad) and centrifuged at 2500 g for 1 minutes immediately before the assay to remove possible air bubbles.” left out, “condition. […]” for “condition.”

Chain of lysozyme (P00698 19-147): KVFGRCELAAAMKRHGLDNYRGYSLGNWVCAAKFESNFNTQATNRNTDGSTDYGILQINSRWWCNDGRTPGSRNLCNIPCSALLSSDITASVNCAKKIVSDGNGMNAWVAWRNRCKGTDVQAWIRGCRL
Chain of Factor IX (P00740 47-461): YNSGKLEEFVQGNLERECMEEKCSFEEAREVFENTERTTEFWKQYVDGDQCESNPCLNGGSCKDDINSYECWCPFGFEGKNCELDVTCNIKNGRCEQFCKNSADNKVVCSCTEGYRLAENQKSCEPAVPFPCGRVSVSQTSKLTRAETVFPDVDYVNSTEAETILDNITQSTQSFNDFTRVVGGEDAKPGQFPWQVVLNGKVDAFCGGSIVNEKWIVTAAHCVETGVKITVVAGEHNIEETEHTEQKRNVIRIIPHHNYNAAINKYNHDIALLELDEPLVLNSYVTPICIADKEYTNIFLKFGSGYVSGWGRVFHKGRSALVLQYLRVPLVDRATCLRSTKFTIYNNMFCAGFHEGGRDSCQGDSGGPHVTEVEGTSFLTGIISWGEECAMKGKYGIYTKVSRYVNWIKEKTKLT

| stabilization effect on lysozyme (increase of melting temperature Tm) (lysozyme) | stabilization effect on lysozyme at pH 12 compared with pH 3.6 (lysozyme) | increase of the melting temperature of ubiquitin (ubiquitin) [°C] | stabilization of Factor IX (increase of melting temperature) (Factor IX) | Compound | degradation of adalimumab after 12 hours at pH 3.2 (HPSEC) (adalimumab (Humira®) [1]) | increase of the melting temperature of adalimumab (adalimumab (Humira®) [2]) [°C] |
| --- | --- | --- | --- | --- | --- | --- |
| showed a stabilization effect | higher | – | – | NC(=O)COC1O[C@H](CO)[C@H](O)[C@H](O)[C@H]1O (stereo partly shown) [GaGlyA] | much reduced | – |
| showed a stabilization effect | – | – | showed stabilization of factor IX | NC(=O)CO[C@H]1O[C@H](CO)[C@@H](O)[C@H](O)[C@@H]1O [MglyA, 2-O-(α-D-mannopyranosyl)acetamide] | – | – |
| showed a stabilization effect | higher | – | – | CC(CC(N)=O)O[C@@H]1O[C@H](CO)[C@H](O)[C@H](O)[C@H]1O (stereo partly drawn) [b-GaBA, 3-O-(β-D-galactopyranosyl)-3-hydroxybutyramide] | – | 22 |
| showed a stabilization effect | higher | – | – | beta-galactosyl-lactamide [b-GaLA] | – | – |
| showed a stabilization effect | – | – | – | beta-glucosyl-lactamide [b-GLA] | – | – |

The remaining lines, values behind:

| Compound | stabilization effect on lysozyme (increase of melting temperature Tm) (lysozyme) | stabilization effect on lysozyme at pH 12 compared with pH 3.6 (lysozyme) | increase of the melting temperature of ubiquitin (ubiquitin) [°C] | stabilization of Factor IX (increase of melting temperature) (Factor IX) | degradation of adalimumab after 12 hours at pH 3.2 (HPSEC) (adalimumab (Humira®) [1]) | increase of the melting temperature of adalimumab (adalimumab (Humira®) [2]) [°C] |
| --- | --- | --- | --- | --- | --- | --- |
| CC(CC(N)=O)OC1O[C@H](CO)[C@@H](O)[C@H](O)[C@H]1O (stereo partly drawn) [GBA, 3-O-(α/β-D-glucopyranosyl)-3-hydroxybutyramide] | showed a stabilization effect | higher | 9 | showed stabilization of factor IX | – | – |
| NC(=O)COC1O[C@H](CO)[C@@H](O)[C@H](O)[C@H]1O (stereo partly shown) [GGlyA] | – | – | – | showed stabilization of factor IX | – | – |
| C[C@H](OC1O[C@H](CO)[C@H](O)[C@H](O)[C@H]1O)C(N)=O (stereo partly shown) [GaLA] | showed a stabilization effect | – | – | showed stabilization of factor IX | – | – |
| C[C@H](O[C@H]1O[C@H](CO)[C@@H](O)[C@H](O)[C@@H]1O)C(N)=O [MLA, (2S)-2-O-(α-D-mannopyranosyl)-3-propanamide] | showed a stabilization effect | – | – | – | – | – |
